Legend:
[1] = tested on: human childhood brain tumor cell lines (PFSK-1); test: Growth inhibitory activity against PFSK-1 cells (WST-8, Cell Counting Kit-8); assay type: cell-based; details: Homo sapiens, 72 h, 3 days incubation with test compound, WST-8 OD 450/630 nm, read-out: IC50 (concentration inhibiting 50% of the cell growth)
How it was run: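 Cells seeded in RPMI 1640 with 10% FBS and preincubated 24 h at 37 °C, 5% CO2, then exposed to compound for 3 days. IC50 (nM) from growth relative to untreated control.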

| IC50 [1] [nM] | melting point [°C] | Structure (SMILES) |
| --- | --- | --- |
| 6.6 | 199.1 to 200.1 | Cc1c(OCCCO)ccc(C2=NNC(=O)CC2C)c1O (stereo not shown) [Example 78, 6-[2-Hydroxy-4-(3-hydroxypropoxy)-3-methylphenyl]-5-methyl-4,5-dihydro-2H-pyridazin-3-one] |
| – | 157.4 to 157.6 | Cc1cc(C2=NNC(=O)CC2C)cc(Cl)c1OCCO (stereo not shown) [Example 4, 6-[3-Chloro-4-(2-hydroxyethoxy)-5-methylphenyl]-5-methyl-4,5-dihydro-2H-pyridazin-3-one] |
| 5.3 | 225 to 225.3 | CC1CC(=O)NN=C1c1ccc(OCCCO)c(Cl)c1O (stereo not shown) [Example 77, 6-[3-Chloro-2-hydroxy-4-(3-hydroxypropoxy)phenyl]-5-methyl-4,5-dihydro-2H-pyridazin-3-one] |
| 2.9 | 129.7 to 132.6 | Cc1cc(C2=NNC(=O)CC2C)cc(Cl)c1OCCCO (stereo not shown) [Example 17, 6-[3-Chloro-4-(3-hydroxypropoxy)-5-methylphenyl]-5-methyl-4,5-dihydro-2H-pyridazin-3-one] |
| 4 | 153 to 156.6 | CC1CC(=O)NN=C1c1cc(Cl)c(OCCCO)c(Br)c1 (stereo not shown) [Example 18, 6-[3-Bromo-5-chloro-4-(3-hydroxypropoxy)phenyl]-5-methyl-4,5-dihydro-2H-pyridazin-3-one] |
| 4 | – | Cc1c(OCCCO)ccc(C2=NNC(=O)CC2C)c1F (stereo not shown) [Example 21, 6-[2-Fluoro-4-(3-hydroxypropoxy)-3-methylphenyl]-5-methyl-4,5-dihydro-2H-pyridazin-3-one] |
| 1 | – | Cc1cc(C2=NNC(=O)CC2C)cc(Cl)c1OCC(C)CO (stereo not shown) [Example 142, 6-[3-chloro-4-(3-hydroxy-2-methylpropoxy)-5-methylphenyl]-5-methyl-4,5-dihydro-2H-pyridazin-3-one] |
| 1.5 | – | Cc1cc(C2=NNC(=O)C[C@H]2C)cc(F)c1OCC(C)(C)CO [Example 125, (5R)-(−)-6-[3-fluoro-4-(3-hydroxy-2,2-dimethylpropoxy)-5-methylphenyl]-5-methyl-4,5-dihydro-2H-pyridazin-3-one] |
| 4.2 | – | Cc1cc(C2=NNC(=O)CC2C)cc(Cl)c1OCC1(CO)CC1 (stereo not shown) [Example 144, 6-{3-Chloro-4-[1-(hydroxymethyl)cyclopropylmethoxy]-5-methylphenyl}-5-methyl-4,5-dihydro-2H-pyridazin-3-one] |
| 1.9 | – | Cc1cc(C2=NNC(=O)CC2C)cc(Cl)c1OCC(C)O (stereo not shown) [Example 55, 6-[3-chloro-4-(2-hydroxypropoxy)-5-methylphenyl]-5-methyl-4,5-dihydro-2H-pyridazin-3-one] |
| 5.2 | – | CC1CC(=O)NN=C1c1cc(F)c(OCC(O)(C(F)(F)F)C(F)(F)F)c(Br)c1 (stereo not shown) [Example 38, 6-{3-Bromo-5-fluoro-4-[3,3,3-trifluoro-2-hydroxy-2-(trifluoromethyl)propoxy]phenyl}-5-methyl-4,5-dihydro-2H-pyridazin-3-one] |
| < 1 | – | Cc1cc(C2=NNC(=O)CC2C)c(F)c(Cl)c1OCC(C)O (stereo not shown) [Example 148, 6-[3-Chloro-2-fluoro-4-(2-hydroxypropoxy)-5-methylphenyl]-5-methyl-4,5-dihydro-2H-pyridazin-3-one] |
| 1.6 | – | Cc1cc(C2=NNC(=O)CC2C)cc(Cl)c1OC[C@@H](C)O (stereo partly drawn) [Example 40, 6-{3-chloro-4-[(2R)-2-hydroxypropoxy]-5-methylphenyl}-5-methyl-4,5-dihydro-2H-pyridazin-3-one] |
| 1.9 | – | CC(O)COc1c(Cl)cc(C2=NNC(=O)CC2C)cc1Cl (stereo not shown) [Example 53, 6-[3,5-dichloro-4-(2-hydroxypropoxy)phenyl]-5-methyl-4,5-dihydro-2H-pyridazin-3-one] |
| 3.4 | – | CC1CC(=O)NN=C1c1cc(F)c(OC/C=C\CO)c(Cl)c1F (stereo not shown) [Example 152, 6-{3-Chloro-2,5-difluoro-4-[(Z)-4-hydroxy-2-butenyloxy]phenyl}-5-methyl-4,5-dihydro-2H-pyridazin-3-one] |
| 7.1 | – | CC1CC(=O)NN=C1c1ccc(OCC2(CO)CC2)c(F)c1F (stereo not shown) [Example 145, 6-{2,3-Difluoro-4-[1-(hydroxymethyl)cyclopropylmethoxy]phenyl}-5-methyl-4,5-dihydro-2H-pyridazin-3-one] |
| 3.9 | – | Cc1cc(C2=NNC(=O)CC2C)c(F)c(C)c1OCC(C)(C)CO (stereo not shown) [Example 138, 6-[2-Fluoro-4-(3-hydroxy-2,2-dimethylpropoxy)-3,5-dimethylphenyl]-5-methyl-4,5-dihydro-2H-pyridazin-3-one] |
| 2.9 | – | C[C@@H]1CC(=O)NN=C1c1ccc(OCC(C)(C)O)c(Cl)c1O [Example 182, (5R)-(−)-6-[3-chloro-2-hydroxy-4-(2-hydroxy-2-methylpropoxy)phenyl]-5-methyl-4,5-dihydro-2H-pyridazin-3-one] |
| 3.6 | – | CC1CC(=O)NN=C1c1cc(Cl)c(OCCCO)c(Cl)c1 (stereo not shown) [Example 16, 6-[3,5-Dichloro-4-(3-hydroxypropoxy)phenyl]-5-methyl-4,5-dihydro-2H-pyridazin-3-one] |
| 1.7 | – | CC1CC(=O)NN=C1c1ccc(OCC(C)(C)O)c(Br)c1F (stereo not shown) [Example 24, 6-[3-bromo-2-fluoro-4-(2-hydroxy-2-methylpropoxy)phenyl]-5-methyl-4,5-dihydro-2H-pyridazin-3-one] |
| 2.9 | – | C[C@@H]1CC(=O)NN=C1c1cc(F)c(OCC2(O)CC2)c(Cl)c1 [Example 119, (5R)-(−)-6-{3-chloro-5-fluoro-4-[(1-hydroxycyclopropyl)methoxy]phenyl}-5-methyl-4,5-dihydro-2H-pyridazin-3-one] |
| 1.1 | – | Cc1cc(C2=NNC(=O)CC2C)cc(Cl)c1OCC(C)(C)O (stereo not shown) [Example 31, 6-[3-chloro-4-(2-hydroxy-2-methylpropoxy)-5-methylphenyl]-5-methyl-4,5-dihydro-2H-pyridazin-3-one] |
| 3.7 | – | CC1CC(=O)NN=C1c1ccc(OCCCO)c(F)c1F (stereo not shown) [Example 10, 6-[2,3-Difluoro-4-(3-hydroxypropoxy)phenyl]-5-methyl-4,5-dihydro-2H-pyridazin-3-one] |
| 3.6 | – | CC(O)COc1c(F)cc(C2=NNC(=O)CC2C)c(F)c1Cl (stereo not shown) [Example 149, 6-[3-Chloro-2,5-difluoro-4-(2-hydroxypropoxy)phenyl]-5-methyl-4,5-dihydro-2H-pyridazin-3-one] |
| 1.3 | – | Cc1cc(C2=NNC(=O)CC2C)c(F)c(Cl)c1OCC1(O)CC1 (stereo not shown) [Example 167, 6-{3-Chloro-2-fluoro-4-[(1-hydroxycyclopropyl)methoxy]-5-methylphenyl}-5-methyl-4,5-dihydro-2H-pyridazin-3-one] |

| Structure (SMILES) | IC50 [1] [nM] | melting point [°C] |
| --- | --- | --- |
| CC1CC(=O)NN=C1c1ccc(OCCCCO)c(Cl)c1O (stereo not shown) [Example 88, 6-[3-Chloro-2-hydroxy-4-(4-hydroxybutoxy)phenyl]-5-methyl-4,5-dihydro-2H-pyridazin-3-one] | 9.5 | 204.5 to 204.9 |
| C=Cc1c(OCCCCO)ccc(C2=NNC(=O)CC2C)c1F (stereo not shown) [Example 89, 6-[2-Fluoro-4-(4-hydroxybutoxy)-3-vinylphenyl]-5-methyl-4,5-dihydro-2H-pyridazin-3-one] | 4.9 | 106.4 to 107.4 |
| Cc1c(OCCCCO)ccc(C2=NNC(=O)CC2C)c1O (stereo not shown) [Example 87, 6-[2-Hydroxy-4-(4-hydroxybutoxy)-3-methylphenyl]-5-methyl-4,5-dihydro-2H-pyridazin-3-one] | 9.8 | 178.7 to 179.9 |
| CC1CC(=O)NN=C1c1ccc(OCC(C)(C)CCO)c(Cl)c1F (stereo not shown) [Example 103, 6-[3-Chloro-2-fluoro-4-(4-hydroxy-2,2-dimethylbutoxy)phenyl]-5-methyl-4,5-dihydro-2H-pyridazin-3-one] | 2.6 | – |
| CC1CC(=O)NN=C1c1ccc(OCCCCCO)c(Cl)c1F (stereo not shown) [Example 91, 6-[3-Chloro-2-fluoro-4-(5-hydroxypentoxy)phenyl]-5-methyl-4,5-dihydro-2H-pyridazin-3-one] | 6 | – |
